Columns and labels:
Type in all cases: biochemical
cyclooxygenase-2 (COX-2) = target: T1, cyclooxygenase-2 (COX-2) (Homo sapiens, UniProt P35354); assay: isolated COX-2 activity assay ([…] AA, 12-HHT formation); […] residual activity at […]
T1 construct: gene PTGS2; recombinant human COX-2
T1 sequence (P35354 18-604): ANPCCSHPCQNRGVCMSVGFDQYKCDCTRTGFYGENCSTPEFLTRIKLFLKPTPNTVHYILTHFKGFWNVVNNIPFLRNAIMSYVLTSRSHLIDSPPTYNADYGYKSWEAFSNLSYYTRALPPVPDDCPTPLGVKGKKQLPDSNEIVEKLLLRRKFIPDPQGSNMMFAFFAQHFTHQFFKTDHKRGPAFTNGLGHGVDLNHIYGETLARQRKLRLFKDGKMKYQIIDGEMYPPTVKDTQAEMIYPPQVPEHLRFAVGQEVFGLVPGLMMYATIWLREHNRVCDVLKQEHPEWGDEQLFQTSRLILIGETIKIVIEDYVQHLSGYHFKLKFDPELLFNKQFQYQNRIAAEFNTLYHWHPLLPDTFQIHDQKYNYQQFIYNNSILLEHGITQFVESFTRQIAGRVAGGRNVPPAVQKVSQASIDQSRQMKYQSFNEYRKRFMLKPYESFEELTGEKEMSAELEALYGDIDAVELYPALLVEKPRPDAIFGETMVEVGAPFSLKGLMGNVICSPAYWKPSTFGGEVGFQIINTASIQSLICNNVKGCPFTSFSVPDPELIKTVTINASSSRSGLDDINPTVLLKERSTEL

cyclooxygenase-1 (COX-1) = target: T2, cyclooxygenase-1 (COX-1) (Ovis aries, UniProt P05979); assay: isolated COX-1 activity assay ([…] AA, 12-HHT formation); […] residual activity at […]
T2 construct: gene PTGS1; purified ovine COX-1
T2 sequence (P05979 25-600): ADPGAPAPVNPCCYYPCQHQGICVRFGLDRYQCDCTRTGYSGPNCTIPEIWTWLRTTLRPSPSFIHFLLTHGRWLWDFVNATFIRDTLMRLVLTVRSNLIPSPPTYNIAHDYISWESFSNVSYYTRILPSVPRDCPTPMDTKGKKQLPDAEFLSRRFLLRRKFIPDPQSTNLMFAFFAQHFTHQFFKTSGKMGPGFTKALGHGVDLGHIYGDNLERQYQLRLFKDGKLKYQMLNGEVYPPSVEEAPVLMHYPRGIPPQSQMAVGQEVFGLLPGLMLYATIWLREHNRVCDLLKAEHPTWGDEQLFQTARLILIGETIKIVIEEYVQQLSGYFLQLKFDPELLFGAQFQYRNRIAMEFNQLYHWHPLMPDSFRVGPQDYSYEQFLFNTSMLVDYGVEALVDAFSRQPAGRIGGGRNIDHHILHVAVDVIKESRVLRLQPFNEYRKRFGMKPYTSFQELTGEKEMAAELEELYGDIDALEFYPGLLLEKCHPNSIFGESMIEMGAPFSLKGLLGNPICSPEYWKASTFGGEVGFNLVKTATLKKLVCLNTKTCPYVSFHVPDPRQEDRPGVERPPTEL

5-lipoxygenase (5-LO) = target: T3, 5-lipoxygenase (5-LO) (Homo sapiens, UniProt P09917); assay: isolated 5-LO activity assay ([…] AA, products by RP-HPLC)
T3 construct: gene ALOX5; recombinant, expressed in E. coli BL21 (DE3) with pT3-5-LO, purified on ATP-agarose
T3 sequence (P09917 1-674): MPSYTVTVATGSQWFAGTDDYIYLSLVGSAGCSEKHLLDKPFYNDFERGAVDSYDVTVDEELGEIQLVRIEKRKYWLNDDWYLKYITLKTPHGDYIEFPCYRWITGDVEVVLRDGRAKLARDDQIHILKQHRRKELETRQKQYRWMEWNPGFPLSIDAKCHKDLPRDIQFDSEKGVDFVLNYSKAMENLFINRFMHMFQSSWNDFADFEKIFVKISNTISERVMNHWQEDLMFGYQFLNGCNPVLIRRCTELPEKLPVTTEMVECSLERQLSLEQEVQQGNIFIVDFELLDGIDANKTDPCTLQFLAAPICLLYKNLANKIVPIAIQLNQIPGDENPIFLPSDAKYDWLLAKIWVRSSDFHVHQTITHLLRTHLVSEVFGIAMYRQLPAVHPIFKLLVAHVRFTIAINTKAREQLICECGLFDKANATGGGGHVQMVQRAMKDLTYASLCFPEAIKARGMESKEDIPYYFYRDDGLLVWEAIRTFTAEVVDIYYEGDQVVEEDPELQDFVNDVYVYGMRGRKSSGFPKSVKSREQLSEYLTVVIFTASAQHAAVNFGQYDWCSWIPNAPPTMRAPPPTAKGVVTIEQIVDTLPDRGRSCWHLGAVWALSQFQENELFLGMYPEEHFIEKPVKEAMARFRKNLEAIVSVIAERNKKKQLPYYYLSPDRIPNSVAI

Question: Which IC50 (cyclooxygenase-2 (COX-2)) does the source give for `C[C@H]1COC2=C1C(=O)C(=O)c1c2ccc2c1CCCC2(C)C` [CRY, cryptotanshinone] here?
Answer: Its IC50 is greater than 30 µM.

Question: What about the IC50 (cyclooxygenase-1 (COX-1)) of the same compound?
Answer: The IC50 was greater than 30 µM.

Question: And the IC50 (5-lipoxygenase (5-LO))?
Answer: Its IC50 is 7.1 µM.

From paper PMC8774285, “In Silico, In Vitro and In Vivo Analysis of Tanshinone IIA and Cryptotanshinone from Salvia miltiorrhiza as Modulators of Cyclooxygenase-2/mPGES-1/Endothelial Prostaglandin EP3 Pathway” (Biomolecules, 2022)
